This is an account of results in ChEMBL document CHEMBL1201862, “PubChem BioAssay data set” (2004).

Active and inactive are the calls of the source.

The target in assay [1] is Intestinal-type alkaline phosphatase (Mus musculus, UniProt P24822). The experiment in a line: PubChem AID 488874. In kind it is functional.
Assay [2] concerns the target T1, Intestinal-type alkaline phosphatase (Homo sapiens, UniProt P09923). The experiment in a line: human intestinal alkaline phosphatase activators, dose response, biochemical, luminescence, uHTS hits (AID 463120). In kind it is functional.
Assay [3] concerns the target T2, Alkaline phosphatase, tissue-nonspecific isozyme (Homo sapiens, UniProt P05186).
T2 sequence (P05186 whole entry): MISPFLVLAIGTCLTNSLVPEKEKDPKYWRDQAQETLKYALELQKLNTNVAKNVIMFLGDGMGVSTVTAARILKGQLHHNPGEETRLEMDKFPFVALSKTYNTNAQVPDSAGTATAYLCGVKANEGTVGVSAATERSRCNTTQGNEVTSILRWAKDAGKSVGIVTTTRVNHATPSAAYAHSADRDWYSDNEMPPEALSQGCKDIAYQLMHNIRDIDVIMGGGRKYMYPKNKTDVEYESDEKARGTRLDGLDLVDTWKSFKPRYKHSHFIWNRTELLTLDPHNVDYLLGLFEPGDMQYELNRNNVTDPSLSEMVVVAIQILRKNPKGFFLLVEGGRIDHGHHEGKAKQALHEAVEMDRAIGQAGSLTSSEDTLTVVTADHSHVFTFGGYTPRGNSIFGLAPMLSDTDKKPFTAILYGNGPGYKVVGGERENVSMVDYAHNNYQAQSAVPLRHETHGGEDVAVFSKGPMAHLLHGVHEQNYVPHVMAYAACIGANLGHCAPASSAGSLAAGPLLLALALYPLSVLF
The experiment in a line: TNAP enzyme activators, dose response, selectivity assay for human IAP activator project, biochemical, TNAP isozyme, human IAP uHTS hits (AID 488886).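 Note: potency of compounds raising TNAP activity as a selectivity check on IAP activators.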 The class given is functional.

Assay [4] deals with T1, Intestinal-type alkaline phosphatase. The experiment in a line: human IAP activators, dose response, biochemical, luminescent, uHTS hits, set 2 (AID 488817).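 Note: potency of activators that raise enzyme activity.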 The class given is functional.
Assay [5] in a line: Counterscreen for AddAB inhibitors: absorbance-based bacterial cell-based high throughput dose response assay for inhibitors of bacterial viability. [Related pubchem assays (depositor defined):AID435030, AID449728, AID449731, AID488942, AID488955, AID488956]. The class given is functional. On the technique in general: A counterscreen serves to expose hits that act by an unwanted route or on another target.

Another assay has as its target Exodeoxyribonuclease V (Escherichia coli (strain K12), UniProt P04993+P07648+P08394). The experiment in a line: E. coli RecBCD inhibitors, dose response, counter-screen for AddAB inhibitor project, absorbance, V66 E. coli, mutant T4 phage (AID 492957). In kind it is functional, cell-based, Escherichia coli str. K-12 substr. MG1655.
For another assay, the target named is Cytochrome P450 2D6 (Homo sapiens, UniProt P10635).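 Note: CYP2D6 member of a cytochrome P450 panel assay.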
The next assay deals with CAAX prenyl protease 1 (Saccharomyces cerevisiae S288c, UniProt P47154). Nature of the assay: Ste24 protease inhibitors, dose response, biochemical, S. cerevisiae, plate reader, cherry-pick (AID 488815).
In a further assay the target is Trypsin (Sus scrofa, UniProt P00761). The experiment in a line: porcine trypsin inhibitors, dose response, selectivity assay for Rce1 protease inhibitor project, biochemical, quenched peptide fluorescence, cherry-pick (AID 488789).
Assay [6] addresses T3, Voltage-gated N-type calcium channel alpha-1B subunit/Amyloid beta A4 precursor protein-binding family A member 1 (Homo sapiens, UniProt Q00975+Q02410). The experiment in a line: disruptors of Mint-PDZ/N-type channel peptide interaction – biochemical, HTRF, set 2, SAR follow-up (AID 434980). In kind it is functional. In general terms: In TR-FRET formats the signal depends on donor and acceptor labels being close together.

In the next assay the target is SUMO E1/E2 (Homo sapiens, UniProt P63279+Q9UBE0+Q9UBT2). Nature of the assay: SAR analysis of SUMOylation using HTRF in an in-Vitro dose response assay. [Related pubchem assays (depositor defined):AID2006, AID2011, AID2018, AID2069, AID2658]. In kind it is functional.
The target in assay [7] is T3, Voltage-gated N-type calcium channel alpha-1B subunit/Amyloid beta A4 precursor protein-binding family A member 1. Nature of the assay: disruptors of Mint-PDZ/N-type channel peptide interaction – biochemical, HTRF, SAR follow-up (AID 2489). The class given is functional.
The target in assay [8] is Kappa-type opioid receptor (Homo sapiens, UniProt P41145). The experiment in a line: SAR analysis of small molecule agonists of the kappa opioid receptor via a luminescent beta-arrestin assay - Set 3. [Related pubchem assays (depositor defined):AID1777, AID1785, AID1786, AID1966, AID2133, AID2136, AID2284, AID2500]. In kind it is functional.
Kappa-type opioid receptor, sequence (P41145 whole entry): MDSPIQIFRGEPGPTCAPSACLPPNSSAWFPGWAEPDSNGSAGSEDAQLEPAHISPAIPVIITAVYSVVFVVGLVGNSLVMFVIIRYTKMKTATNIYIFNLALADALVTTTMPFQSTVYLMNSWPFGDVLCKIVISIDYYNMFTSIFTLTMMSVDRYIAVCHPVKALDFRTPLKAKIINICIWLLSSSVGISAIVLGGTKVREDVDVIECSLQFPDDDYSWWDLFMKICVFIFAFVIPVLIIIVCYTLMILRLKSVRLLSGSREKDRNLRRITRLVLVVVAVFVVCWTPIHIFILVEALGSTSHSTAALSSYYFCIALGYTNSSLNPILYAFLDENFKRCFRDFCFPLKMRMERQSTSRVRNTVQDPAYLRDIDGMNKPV

T1 sequence (P09923 whole entry): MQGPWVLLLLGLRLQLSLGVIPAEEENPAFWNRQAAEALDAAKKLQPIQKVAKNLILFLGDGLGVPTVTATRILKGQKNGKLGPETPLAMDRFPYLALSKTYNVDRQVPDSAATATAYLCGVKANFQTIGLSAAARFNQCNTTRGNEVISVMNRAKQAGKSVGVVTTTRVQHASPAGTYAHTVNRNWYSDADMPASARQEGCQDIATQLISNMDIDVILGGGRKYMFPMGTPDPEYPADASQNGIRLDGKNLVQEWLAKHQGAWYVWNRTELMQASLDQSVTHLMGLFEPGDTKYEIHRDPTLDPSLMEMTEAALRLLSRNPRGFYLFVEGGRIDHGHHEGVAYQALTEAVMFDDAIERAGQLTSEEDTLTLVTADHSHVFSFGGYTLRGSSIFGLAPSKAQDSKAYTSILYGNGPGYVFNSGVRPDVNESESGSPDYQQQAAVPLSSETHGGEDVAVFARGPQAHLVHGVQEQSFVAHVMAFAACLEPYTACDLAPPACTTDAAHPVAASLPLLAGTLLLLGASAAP
T3 sequence (Q00975 whole entry): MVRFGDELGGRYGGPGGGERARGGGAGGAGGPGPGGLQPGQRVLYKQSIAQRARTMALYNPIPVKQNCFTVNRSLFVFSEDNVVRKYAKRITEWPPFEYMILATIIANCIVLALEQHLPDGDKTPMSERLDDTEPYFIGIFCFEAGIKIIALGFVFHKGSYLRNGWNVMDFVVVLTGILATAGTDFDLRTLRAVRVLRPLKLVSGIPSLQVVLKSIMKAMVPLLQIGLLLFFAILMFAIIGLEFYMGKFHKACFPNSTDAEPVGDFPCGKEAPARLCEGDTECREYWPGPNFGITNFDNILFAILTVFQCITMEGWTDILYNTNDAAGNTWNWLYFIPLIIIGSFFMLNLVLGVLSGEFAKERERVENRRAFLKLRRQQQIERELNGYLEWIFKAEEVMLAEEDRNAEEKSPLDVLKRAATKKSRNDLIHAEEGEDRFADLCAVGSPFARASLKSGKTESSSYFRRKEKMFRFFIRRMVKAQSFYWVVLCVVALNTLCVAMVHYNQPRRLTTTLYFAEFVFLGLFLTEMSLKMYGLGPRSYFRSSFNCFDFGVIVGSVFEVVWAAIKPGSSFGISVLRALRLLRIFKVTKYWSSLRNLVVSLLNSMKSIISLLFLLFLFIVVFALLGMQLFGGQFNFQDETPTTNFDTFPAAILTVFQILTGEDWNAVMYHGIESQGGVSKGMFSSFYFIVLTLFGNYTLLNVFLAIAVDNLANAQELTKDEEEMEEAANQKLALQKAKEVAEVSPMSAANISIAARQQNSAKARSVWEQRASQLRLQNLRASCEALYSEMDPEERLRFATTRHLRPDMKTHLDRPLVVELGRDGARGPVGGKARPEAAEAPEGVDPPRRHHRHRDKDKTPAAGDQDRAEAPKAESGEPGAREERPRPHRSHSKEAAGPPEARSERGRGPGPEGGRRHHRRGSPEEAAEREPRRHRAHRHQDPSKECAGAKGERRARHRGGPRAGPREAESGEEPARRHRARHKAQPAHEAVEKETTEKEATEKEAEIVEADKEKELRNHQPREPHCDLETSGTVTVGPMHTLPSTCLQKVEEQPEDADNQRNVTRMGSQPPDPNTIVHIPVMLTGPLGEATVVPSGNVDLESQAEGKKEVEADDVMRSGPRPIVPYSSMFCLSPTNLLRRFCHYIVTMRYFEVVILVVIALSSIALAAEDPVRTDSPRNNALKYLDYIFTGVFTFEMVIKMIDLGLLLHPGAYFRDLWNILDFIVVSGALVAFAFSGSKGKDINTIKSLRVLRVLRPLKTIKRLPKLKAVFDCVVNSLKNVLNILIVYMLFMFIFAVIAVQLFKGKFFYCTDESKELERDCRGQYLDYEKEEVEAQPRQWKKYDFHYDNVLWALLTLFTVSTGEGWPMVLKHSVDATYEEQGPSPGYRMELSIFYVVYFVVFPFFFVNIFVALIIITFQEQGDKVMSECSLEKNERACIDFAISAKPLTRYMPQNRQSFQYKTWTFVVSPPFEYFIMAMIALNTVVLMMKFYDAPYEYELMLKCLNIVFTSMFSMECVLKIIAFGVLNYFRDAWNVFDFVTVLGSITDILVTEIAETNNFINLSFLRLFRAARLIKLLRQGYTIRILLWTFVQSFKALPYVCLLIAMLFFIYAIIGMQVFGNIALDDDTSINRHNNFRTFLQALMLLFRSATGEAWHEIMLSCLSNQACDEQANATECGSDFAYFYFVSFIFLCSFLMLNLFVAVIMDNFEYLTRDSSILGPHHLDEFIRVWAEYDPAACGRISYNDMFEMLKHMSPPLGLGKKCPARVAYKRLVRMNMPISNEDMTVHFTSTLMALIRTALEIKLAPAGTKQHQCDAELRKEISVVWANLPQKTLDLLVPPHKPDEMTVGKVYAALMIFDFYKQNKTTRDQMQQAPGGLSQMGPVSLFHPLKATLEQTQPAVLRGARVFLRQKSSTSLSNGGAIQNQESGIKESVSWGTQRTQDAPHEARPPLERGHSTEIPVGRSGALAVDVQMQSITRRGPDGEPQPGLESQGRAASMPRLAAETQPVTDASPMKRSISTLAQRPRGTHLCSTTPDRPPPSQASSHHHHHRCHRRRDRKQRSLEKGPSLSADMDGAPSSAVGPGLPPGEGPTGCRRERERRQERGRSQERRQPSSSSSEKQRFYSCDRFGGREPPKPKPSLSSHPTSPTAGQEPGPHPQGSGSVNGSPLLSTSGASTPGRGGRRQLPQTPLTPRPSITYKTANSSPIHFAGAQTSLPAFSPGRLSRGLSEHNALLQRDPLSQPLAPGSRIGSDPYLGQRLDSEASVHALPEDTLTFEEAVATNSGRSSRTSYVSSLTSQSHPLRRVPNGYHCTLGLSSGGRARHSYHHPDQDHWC
T3 sequence (Q02410 whole entry): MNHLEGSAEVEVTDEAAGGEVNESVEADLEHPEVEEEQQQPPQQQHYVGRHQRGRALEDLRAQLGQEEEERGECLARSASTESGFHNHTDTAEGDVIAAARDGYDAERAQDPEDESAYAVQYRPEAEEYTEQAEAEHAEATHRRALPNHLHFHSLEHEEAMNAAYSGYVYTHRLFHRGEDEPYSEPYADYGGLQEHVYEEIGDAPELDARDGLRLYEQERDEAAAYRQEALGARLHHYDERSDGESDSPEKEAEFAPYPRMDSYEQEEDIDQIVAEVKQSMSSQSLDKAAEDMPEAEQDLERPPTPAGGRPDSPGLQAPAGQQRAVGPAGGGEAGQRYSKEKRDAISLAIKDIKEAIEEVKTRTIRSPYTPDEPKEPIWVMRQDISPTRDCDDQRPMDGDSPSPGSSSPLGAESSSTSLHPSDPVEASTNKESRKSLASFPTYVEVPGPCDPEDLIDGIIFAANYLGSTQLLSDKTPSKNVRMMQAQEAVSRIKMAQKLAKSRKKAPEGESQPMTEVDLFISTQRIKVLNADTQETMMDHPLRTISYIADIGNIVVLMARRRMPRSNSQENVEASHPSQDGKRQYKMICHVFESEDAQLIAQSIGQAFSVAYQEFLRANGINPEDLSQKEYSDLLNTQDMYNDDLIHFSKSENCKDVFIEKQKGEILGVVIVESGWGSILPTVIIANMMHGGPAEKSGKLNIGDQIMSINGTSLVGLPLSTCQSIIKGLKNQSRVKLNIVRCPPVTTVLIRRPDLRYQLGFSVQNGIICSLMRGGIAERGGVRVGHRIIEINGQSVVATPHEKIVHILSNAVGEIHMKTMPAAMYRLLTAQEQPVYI
Trypsin, sequence (P00761 whole entry): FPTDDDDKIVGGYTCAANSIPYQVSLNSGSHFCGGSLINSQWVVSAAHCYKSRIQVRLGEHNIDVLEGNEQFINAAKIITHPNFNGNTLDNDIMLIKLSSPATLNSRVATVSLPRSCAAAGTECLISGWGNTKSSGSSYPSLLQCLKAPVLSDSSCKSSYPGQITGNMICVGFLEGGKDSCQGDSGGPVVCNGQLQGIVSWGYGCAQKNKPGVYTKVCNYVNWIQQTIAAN
Intestinal-type alkaline phosphatase (Mus musculus, UniProt P24822), sequence (P24822 whole entry): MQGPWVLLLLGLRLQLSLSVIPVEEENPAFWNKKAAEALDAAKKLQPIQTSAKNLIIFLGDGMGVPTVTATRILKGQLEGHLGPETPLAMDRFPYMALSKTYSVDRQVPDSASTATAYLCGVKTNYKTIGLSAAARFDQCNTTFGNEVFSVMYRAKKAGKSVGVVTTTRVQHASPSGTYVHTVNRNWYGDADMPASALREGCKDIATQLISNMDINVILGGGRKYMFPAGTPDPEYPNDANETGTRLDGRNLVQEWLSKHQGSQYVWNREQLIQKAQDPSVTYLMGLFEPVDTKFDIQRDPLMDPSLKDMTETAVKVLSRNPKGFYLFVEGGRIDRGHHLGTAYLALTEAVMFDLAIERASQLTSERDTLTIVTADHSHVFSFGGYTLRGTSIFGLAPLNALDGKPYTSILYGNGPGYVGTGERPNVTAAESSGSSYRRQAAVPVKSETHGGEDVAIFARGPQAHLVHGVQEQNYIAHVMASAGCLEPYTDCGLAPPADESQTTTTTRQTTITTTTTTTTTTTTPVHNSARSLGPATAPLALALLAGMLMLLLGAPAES

With `CCOc1cc(/C=N/NC(=O)C(=O)N/N=C/c2ccc(O)c(OCC)c2)ccc1O`, in [1], the IC50 was > 100 µM (inactive). The values for the EC50 in assay [2], in assay [3] and in assay [4] were 29.1 µM (active), > 100 µM (inactive) and 100 µM (inactive), respectively.
In the case of `O=C(CSc1nc2ccccc2o1)Nc1ccc(N2CCOCC2)cc1`, the IC50 (in [5]; at Exodeoxyribonuclease V) was > 119 µM (inactive) each time.
Take `C=CCNc1oc(/C=C/c2ccccc2)nc1C#N`: the AC50 is 20 µM (inconclusive) on Cytochrome P450 2D6, 63.7 µM (active) at CAAX prenyl protease 1 and 23.5 µM (active) at Trypsin.
Turning to `O=C(OCC(=O)N1CCc2ccccc2C1)c1cc(-c2ccco2)nc2ccccc12`, the IC50 was 10.2 µM (active) in assay [6], 3.76 µM (active) on SUMO E1/E2 and > 56.8 µM (inactive) in [7].
In the case of `Brc1ccc(CSc2nnc(-c3ccncc3)n2Cc2ccco2)cc1`, the EC50 in [8] was > 20 µM (inactive).

Broadly, the IC50 is the concentration needed to halve the response being measured. As a reminder, the EC50 is the concentration needed to bring the measured effect to its halfway point. In general, AC50 refers to the concentration giving half of the maximal activity seen.
